Test results published in patent US10405548B2, “Fungicidal compositions” (Syngenta Crop Protection, LLC, priority 2004, dated 2019).
Where “and” joins values, the source holds several entries; their conditions need not be identical. Equal values may be shown once. Read-outs that look alike come from different tables or passages of the source.

Experiments:
Format in all cases: cell-based
[1] = system: Ustilago nuda; test: Fungal growth assay, Control of Ustilago nuda (PDB, 96-well, 24° C., photometric, 48 hrs)
[2] = system: Fusarium graminearum
[3] = system: Rhizoctonia solani; test: Fungal growth assay, Control of Rhizoctonia solani (PDB, 96-well, 24° C., photometric, 48 hrs)
[4] = system: Septoria tritici; test: Fungal growth assay, Control of Septoria tritici (PDB, 96-well, 24° C., photometric, 72 hrs)
[5] = system: Pyrenophora graminea; test: Fungal growth assay, Control of Pyrenophora graminea (PDB, 96-well, 24° C., photometric, 72 hrs)
[6] = system: Microdochium nivale; test: Fungal growth assay, Control of Microdochium nivale (PDB, 96-well, 24° C., photometric, 72 hrs)
[7] = system: Gäumannomyces graminis; test: Fungal growth assay, Control of Gaumannomyces graminis (PDB, 96-well, 24° C., photometric, 72 hrs)

In the case of `N#Cc1c[nH]cc1-c1cccc2c1OC(F)(F)O2` [Fludioxonil, reference compound], the “Observed control in % (% Cobs)” value ([1]; 0.002 ppm) is reported as 0%, the “Observed control in % (% Cobs)” value ([1]; 0.007 ppm) is reported as 0% and the “Observed control in % (% Cobs)” value ([1]; 0.022 ppm) is reported as 21%. For the same molecule, the “Observed control in % (% Cobs)” value ([2]; 0.007 ppm) was 1%, the “Observed control in % (% Cobs)” value ([2]; 0.022 ppm) was 6% and the “Observed control in % (% Cobs)” value ([2]; 0.067 ppm) was 39%. The “Observed control in % (% Cobs)” value ([3]; 0.002 ppm) was 0%, the “Observed control in % (% Cobs)” value ([3]; 0.007 ppm) was 6% and the “Observed control in % (% Cobs)” value ([3]; 0.022 ppm) was 0%. For the same molecule, the “Observed control in % (% Cobs)” value ([3]; 0.067 ppm) was 0%, the “Observed control in % (% Cobs)” value ([4]; 0.002 ppm) was 0% and the “Observed control in % (% Cobs)” value ([4]; 0.067 ppm) was 9%. For the same molecule, the “Observed control in % (% Cobs)” value ([5]; 0.002 ppm) was 7%, the “Observed control in % (% Cobs)” value ([6]; 0.002 ppm) was 0% and the “Observed control in % (% Cobs)” value ([6]; 0.007 ppm) was 0%. The “Observed control in % (% Cobs)” value ([6]; 0.022 ppm) was 0% and the “Observed control in % (% Cobs)” value ([6]; 0.067 ppm) was 3%.
`CC(C1CC1)C(O)(Cn1cncn1)c1ccc(Cl)cc1` (centres unmarked) [Cyproconazole, reference compound] was tested, and the “Observed control in % (% Cobs)” value ([2]; 0.002 ppm) was 5%, the “Observed control in % (% Cobs)” value ([2]; 0.022 ppm) was 1% and the “Observed control in % (% Cobs)” value ([2]; 0.2 ppm) was 0%. For the same molecule, the “Observed control in % (% Cobs)” value ([5]; 0.022 ppm) was 4%, the “Observed control in % (% Cobs)” value ([5]; 0.2 ppm) was 19% and the “Observed control in % (% Cobs)” value ([5]; 0.6 ppm) was 28%. The “Observed control in % (% Cobs)” value ([6]; 0.2 ppm) was 0%, the “Observed control in % (% Cobs)” value ([6]; 0.6 ppm) was 0% and the “Observed control in % (% Cobs)” value ([6]; 1.8 ppm) was 9%.
`CC1COC(Cn2cncn2)(c2ccc(Oc3ccc(Cl)cc3)cc2Cl)O1` (centres unmarked) [Difenoconazole, reference compound] was tested, and the “Observed control in % (% Cobs)” value ([1]; 0.002 ppm) was 2%, the “Observed control in % (% Cobs)” value ([5]; 0.007 ppm) was 0% and the “Observed control in % (% Cobs)” value ([5]; 0.022 ppm) was 15%. For the same molecule, the “Observed control in % (% Cobs)” value ([5]; 0.067 ppm) was 23%, the “Observed control in % (% Cobs)” value ([5]; 0.2 ppm) was 51% and the “Observed control in % (% Cobs)” value ([6]; 0.007 ppm) was 4%. For the same molecule, the “Observed control in % (% Cobs)” value ([6]; 0.2 ppm) was 1% and the “Observed control in % (% Cobs)” value ([6]; 0.6 ppm) was 13%.
For `c1ccc2[nH]c(-c3cscn3)nc2c1` [Thiabendazole, reference compound], the “Observed control in % (% Cobs)” value ([2]; 0.0025 ppm) was 1%, the “Observed control in % (% Cobs)” value ([2]; 0.0223 ppm) was 0% and the “Observed control in % (% Cobs)” value ([3]; 0.0074 ppm) was 0%. The “Observed control in % (% Cobs)” value ([3]; 0.023 ppm) was 7%, the “Observed control in % (% Cobs)” value ([3]; 0.2 ppm) was 12% and the “Observed control in % (% Cobs)” value ([3]; 0.6 ppm) was 13%. The “Observed control in % (% Cobs)” value ([4]; 0.0223 ppm) was 0%, the “Observed control in % (% Cobs)” value ([4]; 0.067 ppm) was 0% and the “Observed control in % (% Cobs)” value ([4]; 0.6 ppm) was 3%. For the same molecule, the “Observed control in % (% Cobs)” value ([4]; 1.8 ppm) was 1%, the “Observed control in % (% Cobs)” value ([5]; 0.0025 ppm) was 0% and the “Observed control in % (% Cobs)” value ([5]; 0.0223 ppm) was 0%.
In the case of `CO/C=C(/C(=O)OC)c1ccccc1Oc1cc(Oc2ccccc2C#N)ncn1` [Azoxystrobin, reference compound], the “Observed control in % (% Cobs)” value ([7]; 0.002 ppm) is reported as 11%.
`Cn1cc(C(=O)Nc2ccccc2[C@@H]2C[C@H]2C2CC2)c(C(F)F)n1` (racemic) [Racemic cpd Ia] was tested, and the “Observed control in % (% Cobs)” value ([1]; 0.0001 ppm) was 5%, the “Observed control in % (% Cobs)” value ([1]; 0.0003 ppm) was 0% and the “Observed control in % (% Cobs)” value ([1]; 0.002 ppm) was 0%. The “Observed control in % (% Cobs)” value ([1]; 0.007 ppm) was 15%, the “Observed control in % (% Cobs)” value ([2]; 0.0001 ppm) was 0% and the “Observed control in % (% Cobs)” value ([2]; 0.0008 ppm) was 0%. For the same molecule, the “Observed control in % (% Cobs)” value ([2]; 0.007 ppm) was 0%, the “Observed control in % (% Cobs)” value ([2]; 0.0074 ppm) was 0% and the “Observed control in % (% Cobs)” value ([2]; 0.022 ppm) was 0%. The “Observed control in % (% Cobs)” value ([2]; 0.0667 ppm) was 7%, the “Observed control in % (% Cobs)” value ([2]; 0.067 ppm) was 4% and 10% and the “Observed control in % (% Cobs)” value ([2]; 0.2 ppm) was 7%. The “Observed control in % (% Cobs)” value ([2]; 0.6 ppm) was 12%, the “Observed control in % (% Cobs)” value ([2]; 1.8 ppm) was 18% and the “Observed control in % (% Cobs)” value ([7]; 0.0003 ppm) was 0%. The “Observed control in % (% Cobs)” value ([7]; 0.0008 ppm) was 0%, the “Observed control in % (% Cobs)” value ([7]; 0.002 ppm) was 2% and the “Observed control in % (% Cobs)” value ([7]; 0.007 ppm) was 0%. The “Observed control in % (% Cobs)” value ([7]; 0.2 ppm) was 0%, the “Observed control in % (% Cobs)” value ([3]; 0.0001 ppm) was 3% and the “Observed control in % (% Cobs)” value ([3]; 0.0008 ppm) was 8%. The “Observed control in % (% Cobs)” value ([3]; 0.0025 ppm) was 4%, the “Observed control in % (% Cobs)” value ([3]; 0.007 ppm) was 4% and the “Observed control in % (% Cobs)” value ([3]; 0.0074 ppm) was 0%. The “Observed control in % (% Cobs)” value ([4]; 0.0001 ppm) was 0%, the “Observed control in % (% Cobs)” value ([4]; 0.0003 ppm) was 2% and 1% and the “Observed control in % (% Cobs)” value ([4]; 0.007 ppm) was 0%. For the same molecule, the “Observed control in % (% Cobs)” value ([4]; 0.0074 ppm) was 0%, the “Observed control in % (% Cobs)” value ([4]; 0.022 ppm) was 0% and the “Observed control in % (% Cobs)” value ([4]; 0.067 ppm) was 4%. For the same molecule, the “Observed control in % (% Cobs)” value ([5]; 0.0003 ppm) was 1%, the “Observed control in % (% Cobs)” value ([5]; 0.0008 ppm) was 6% and the “Observed control in % (% Cobs)” value ([5]; 0.002 ppm) was 0%. The “Observed control in % (% Cobs)” value ([5]; 0.0074 ppm) was 4%, the “Observed control in % (% Cobs)” value ([5]; 0.022 ppm) was 0% and the “Observed control in % (% Cobs)” value ([5]; 0.0667 ppm) was 20%. For the same molecule, the “Observed control in % (% Cobs)” value ([5]; 0.067 ppm) was 1%, the “Observed control in % (% Cobs)” value ([5]; 1.8 ppm) was 11% and 1% and 6% and the “Observed control in % (% Cobs)” value ([6]; 0.0003 ppm) was 0%. For the same molecule, the “Observed control in % (% Cobs)” value ([6]; 0.0008 ppm) was 0%, the “Observed control in % (% Cobs)” value ([6]; 0.002 ppm) was 0% and the “Observed control in % (% Cobs)” value ([6]; 0.0025 ppm) was 1% and 0%. The “Observed control in % (% Cobs)” value ([6]; 0.007 ppm) was 2%, the “Observed control in % (% Cobs)” value ([6]; 0.0074 ppm) was 0% and the “Observed control in % (% Cobs)” value ([6]; 0.067 ppm) was 0% and 4% and 2%.
